Reference: the supplement of paper PMC10627819

Tests used:
B. subtilis 168 [1] = assay: fitness (endpoint OD595 vs no drug) (fraction); higher = more growth
Outline: (§1)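 Bacterial growth was followed in 384-well plates seeded at OD595 0.01, with 30 µl per well, or 55 µl for S. pneumoniae, in TSB, LB Lennox or CY at 37 °C. OD595 was read every 30 min for 14 h, and each reading had the first reading subtracted as background. Fitness is the background-corrected optical density at entry into stationary phase divided by the robust mean of the no-drug control wells. This ratio is capped at 1.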

S. aureus Newman [2] = assay: as above
Outline: as §1

B. subtilis 168 [3] = assay: Bliss interaction score (quartile over a dose matrix) (fitness difference); higher = more antagonism (negative = synergy)
Outline: (§2)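 Fitness here means normalised growth, inferred for single drugs from the combination data. Growth was OD595 at entry into stationary phase, divided by the plate's robust no-drug mean and capped at 1. The Bliss score is observed minus expected fitness, with the expectation being the product, and its quartiles span technical, biological and donor/recipient replicates.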

S. aureus DSM 20231 = assay: as above
Outline: as §2

S. aureus Newman [4] = assay: as above
Outline: as §2

S. pneumoniae D39V [5] = assay: as above
Outline: as §2

S. pneumoniae D39V [6] = assay: fitness (endpoint OD595 vs no drug) (fraction); higher = more growth
Outline: as §1
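For Bliss interaction score (quartile over a dose matrix) in this document: first quartile when negative (synergy) and third quartile when positive (antagonism).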

CO/N=C(\C(=O)N[C@@H]1C(=O)N2C(C(=O)O)=C(COC(N)=O)CS[C@H]12)c1ccco1 [Cefuroxime] + CN(N=O)C(=O)N[C@@H](C=O)[C@@H](O)[C@H](O)[C@H](O)CO [Streptozotocin]
fitness, B. subtilis 168 [1]
Details | first compound 0.04875 µg/mL | first compound 0.0975 µg/mL | first compound 0.195 µg/mL
partner 0.15 µg/mL | 0.717 | 0.688 | 0.539
partner 0.3 µg/mL | – | – | 0.54
partner 0.6 µg/mL | – | – | 0.496

fitness, S. aureus Newman [2], one replicate
Details | first compound 0.04875 µg/mL | first compound 0.0975 µg/mL | first compound 0.195 µg/mL
partner 0.15 µg/mL | 0.958 | 0.995 | 0.96
partner 0.3 µg/mL | 0.731 | 0.723 | 0.736
partner 0.6 µg/mL | 0.534 | 0.51 | 0.464

Details | Bliss interaction score
B. subtilis 168 [3] | -0.0649
S. aureus DSM 20231 | 0.0897
S. aureus Newman [4] | -0.194
S. pneumoniae D39V [5] | -0.0368

CO/N=C(\C(=O)N[C@@H]1C(=O)N2C(C(=O)O)=C(COC(N)=O)CS[C@H]12)c1ccco1 [Cefuroxime] + CN[C@H](CC(C)C)C(=O)N[C@H]1C(=O)N[C@@H](CC(N)=O)C(=O)N[C@H]2C(=O)N[C@H]3C(=O)N[C@H](C(=O)N[C@H](C(=O)O)c4cc(O)cc(O)c4-c4cc3ccc4O)[C@H](O)c3ccc(c(Cl)c3)Oc3cc2cc(c3O[C@@H]2O[C@H](CO)[C@@H](O)[C@H](O)[C@H]2O[C@H]2C[C@](C)(N)[C@H](O)[C@H](C)O2)Oc2ccc(cc2Cl)[C@H]1O [Vancomycin]
fitness, S. aureus Newman [2], one replicate
Details | first compound 0.04875 µg/mL | first compound 0.0975 µg/mL | first compound 0.195 µg/mL
partner 0.1875 µg/mL | 0.934 | 0.974 | 0.943
partner 0.375 µg/mL | 0.93 | 0.995 | 0.925
partner 0.75 µg/mL | 0.975 | 0.988 | 0.926

Details | Bliss interaction score
B. subtilis 168 [3] | -0.0941
S. aureus DSM 20231 | 0.14
S. aureus Newman [4] | 0.0418
S. pneumoniae D39V [5] | -0.0597

CO/N=C(\C(=O)N[C@@H]1C(=O)N2C(C(=O)O)=C(COC(N)=O)CS[C@H]12)c1ccco1 [Cefuroxime] + Cn1nnc(-c2ccc(-c3ccc(N4C[C@H](CO)OC4=O)cc3F)cn2)n1 [Tedizolid]
fitness, S. aureus Newman [2], one replicate
Details | first compound 0.04875 µg/mL | first compound 0.0975 µg/mL | first compound 0.195 µg/mL
partner 0.0625 µg/mL | 0.614 | 0.641 | 0.517
partner 0.125 µg/mL | 0.0599 | 0.0707 | 0.0587
partner 0.25 µg/mL | 0.496 | 0.513 | 0.425

Details | Bliss interaction score
B. subtilis 168 [3] | 0.136
S. aureus DSM 20231 | -0.223
S. aureus Newman [4] | 0.259
S. pneumoniae D39V [5] | 0.026

O=C(O)c1cn(C2CC2)c2cc(N3CCNCC3)c(F)cc2c1=O [Ciprofloxacin] + C/C(=C\C(=O)OCCCCCCCCC(=O)O)C[C@@H]1OC[C@H](C[C@@H]2O[C@H]2[C@@H](C)[C@H](C)O)[C@@H](O)[C@H]1O [Pseudomonic acid]
fitness, S. aureus Newman [2], one replicate
Details | first compound 0.078 µg/mL | first compound 0.156 µg/mL | first compound 0.312 µg/mL
partner 0.0313 µg/mL | 0.0919 | 0.0675 | 0.0586
partner 0.0625 µg/mL | 0.052 | 0.0404 | 0.0324
partner 0.125 µg/mL | 0.0642 | 0.0505 | 0.0607

fitness, S. pneumoniae D39V [6]
Details | first compound 0.125 µg/mL | first compound 0.25 µg/mL | first compound 0.5 µg/mL
partner 0.03 µg/mL | 0.92 | 0.877 | –
partner 0.06 µg/mL | 0.828 | 0.742 | –
partner 0.12 µg/mL | 0.444 | 0.551 | 0.393

Details | Bliss interaction score
B. subtilis 168 [3] | 0.0413
S. aureus DSM 20231 | 0.0149
S. aureus Newman [4] | 0.0616
S. pneumoniae D39V [5] | 0.0559

O=C(O)c1cn(C2CC2)c2cc(N3CCNCC3)c(F)cc2c1=O [Ciprofloxacin] + CCCCCCCCCC(=O)N[C@@H]1[C@H]([C@@H]([C@H](O[C@H]1OC2=C3C=C4C=C2OC5=C(C=C(C=C5)[C@H]([C@H]6C(=O)N[C@@H](C7=C(C(=CC(=C7)O)OC8[C@H]([C@H]([C@@H]([C@H](O8)CO)O)O)O)C9=C(C=CC(=C9)[C@H](C(=O)N6)NC(=O)[C@@H]4NC(=O)[C@@H]1C2=CC(=CC(=C2)OC2=C(C=CC(=C2)[C@H](C(=O)N[C@H](CC2=CC(=C(O3)C=C2)Cl)C(=O)N1)N)O)O)O)C(=O)O)O[C@H]1[C@@H]([C@H]([C@@H]([C@H](O1)CO)O)O)NC(=O)C)Cl)CO)O)O [Teicoplanin]
fitness, S. aureus Newman [2], main component drawn
Details | first compound 0.0375 µg/mL | first compound 0.075 µg/mL | first compound 0.15 µg/mL
partner 0.1562 µg/mL | 0.681 | 0.629 | 0.0421
partner 0.3125 µg/mL | 0.713 | 0.626 | 0.0116
partner 0.625 µg/mL | 0.608 | 0.534 | 0.0117

fitness, S. aureus Newman [2], one replicate, main component drawn
Details | first compound 0.078 µg/mL | first compound 0.156 µg/mL | first compound 0.312 µg/mL
partner 0.62 µg/mL | 0.535 | 0.0341 | 0.036
partner 1.24 µg/mL | 0.372 | 0.0368 | 0.0337
partner 2.48 µg/mL | 0.0816 | 0.0702 | 0.0565

main component drawn
Details | Bliss interaction score
B. subtilis 168 [3] | -0.1
S. aureus DSM 20231 | 0.0835
S. aureus Newman [4] | -0.0935
S. pneumoniae D39V [5] | -0.063

O=C(O)c1cn(C2CC2)c2cc(N3CCNCC3)c(F)cc2c1=O [Ciprofloxacin] + CN[C@H](CC(C)C)C(=O)N[C@H]1C(=O)N[C@@H](CC(N)=O)C(=O)N[C@H]2C(=O)N[C@H]3C(=O)N[C@H](C(=O)N[C@H](C(=O)O)c4cc(O)cc(O)c4-c4cc3ccc4O)[C@H](O)c3ccc(c(Cl)c3)Oc3cc2cc(c3O[C@@H]2O[C@H](CO)[C@@H](O)[C@H](O)[C@H]2O[C@H]2C[C@](C)(N)[C@H](O)[C@H](C)O2)Oc2ccc(cc2Cl)[C@H]1O [Vancomycin]
Details | fitness
S. aureus Newman [2], first compound 0.0375 µg/mL, partner 0.1875 µg/mL | 0.75
S. aureus Newman [2], first compound 0.0375 µg/mL, partner 0.375 µg/mL | 0.77
S. aureus Newman [2], first compound 0.0375 µg/mL, partner 0.75 µg/mL | 0.725
S. aureus Newman [2], first compound 0.075 µg/mL, partner 0.1875 µg/mL | 0.718
S. aureus Newman [2], first compound 0.075 µg/mL, partner 0.375 µg/mL | 0.682
S. aureus Newman [2], first compound 0.075 µg/mL, partner 0.75 µg/mL | 0.663
S. aureus Newman [2], first compound 0.15 µg/mL, partner 0.1875 µg/mL | 0.07
S. aureus Newman [2], first compound 0.15 µg/mL, partner 0.375 µg/mL | 0.0567
S. aureus Newman [2], first compound 0.15 µg/mL, partner 0.75 µg/mL | 0.0797
S. pneumoniae D39V [6], first compound 0.125 µg/mL, partner 0.03125 µg/mL | 0.943
S. pneumoniae D39V [6], first compound 0.125 µg/mL, partner 0.0625 µg/mL | 0.881
S. pneumoniae D39V [6], first compound 0.125 µg/mL, partner 0.125 µg/mL | 0.885
S. pneumoniae D39V [6], first compound 0.125 µg/mL, partner 0.25 µg/mL | 0.0814
S. pneumoniae D39V [6], first compound 0.125 µg/mL, partner 0.5 µg/mL | 0.034
S. pneumoniae D39V [6], first compound 0.25 µg/mL, partner 0.03125 µg/mL | 0.845
S. pneumoniae D39V [6], first compound 0.25 µg/mL, partner 0.0625 µg/mL | 0.826
S. pneumoniae D39V [6], first compound 0.25 µg/mL, partner 0.125 µg/mL | 0.82
S. pneumoniae D39V [6], first compound 0.5 µg/mL, partner 0.03125 µg/mL | 0.58
S. pneumoniae D39V [6], first compound 0.5 µg/mL, partner 0.0625 µg/mL | 0.585
S. pneumoniae D39V [6], first compound 0.5 µg/mL, partner 0.25 µg/mL | 0.158
S. pneumoniae D39V [6], first compound 0.5 µg/mL, partner 0.5 µg/mL | 0.0552

S. pneumoniae D39V [6], first compound 0.25 µg/mL, one replicate
Details | fitness
partner 0.25 µg/mL | 0.0819
partner 0.5 µg/mL | 0.0016

Details | Bliss interaction score
B. subtilis 168 [3] | -0.0465
S. aureus DSM 20231 | 0.0479
S. aureus Newman [4] | -0.0715
S. pneumoniae D39V [5] | -0.106
